According to patent US10456358B2, “Isoxazoline compositions and use thereof in the prevention or treatment of parasite infestations in animals” (Intervet Inc., priority 2013, dated 2019):

Test system: poultry red mite (Dermanyssus gallinae)
Test: Efficacy study: medicated drinking water against artificially induced poultry red mite infestations of laying hens
Type: in vivo
Description: Groups A-D (n=6) were treated with doses of 2, 1 and 0.5 mg fluralaner/kg BW once or 1 mg fluralaner/kg BW twice (0.5 mg/kg BW on 2 occasions).
Drinking water consumption in each was measured on three days prior to administration to calculate the average daily water consumption. Medicated water was prepared by diluting a fluralaner solution (10 mg/mL) as shown in the table below to the calculated fluralaner concentration.
On D0 (group D additionally on D7), the hens in groups A-D received fluralaner via medicated drinking water. Group E received un-medicated drinking water ad libitum.
The dose to be administered was calculated based on average body weights of each treatment group, obtained one day before treatment (D-1, D 6). A fluralaner stock solution was diluted in the drinking water to prepare medicated water ready for consumption.
The volume of medicated water offered per group on D0 (group D also on D7) was approximately 50% of the calculated mean daily water intake measured previously in the respective group in order to ensure consumption of the full dose.
Once all medicated water was consumed the other 50% volume of the mean daily water intake was supplied as tap water in the same drinker.
On Day 1, Day 5, Day 8, Day 12, D15, D19 and D22 four of six hens per group were infested with approximately 200 vital, D. gallinae mites (unfed nymphs and adults that starved before infestation for 7 days).
From each infested hen approximately 25 engorged mites were collected and incubated for approximately 24 hours. The dead, damaged and/or live mites were counted visually using a binocular.
Mites were classified as dead if no movement was determined or mites lay in a dorsal position. Mites were classified as damaged if their movement was uncoordinated.
The Mite Mortality and Mite Inhibition percentage was calculated for each treated group in comparison to a not-treated negative control group.

[1] = Group A, 2 mg/kg BW once (D0) via drinking water, laying hens, infestation on D1
[2] = Group A, 2 mg/kg BW once (D0) via drinking water, laying hens, infestation on D5
[3] = Group A, 2 mg/kg BW once (D0) via drinking water, laying hens, infestation on D8
[4] = Group A, 2 mg/kg BW once (D0) via drinking water, laying hens, infestation on D12
[5] = Group A, 2 mg/kg BW once (D0) via drinking water, laying hens, infestation on D15
[6] = Group A, 2 mg/kg BW once (D0) via drinking water, laying hens, infestation on D19
[7] = Group A, 2 mg/kg BW once (D0) via drinking water, laying hens, infestation on D22
[8] = Group B, 1 mg/kg BW once (D0) via drinking water, laying hens, infestation on D1
[9] = Group B, 1 mg/kg BW once (D0) via drinking water, laying hens, infestation on D5
[10] = Group B, 1 mg/kg BW once (D0) via drinking water, laying hens, infestation on D8
[11] = Group B, 1 mg/kg BW once (D0) via drinking water, laying hens, infestation on D12
[12] = Group B, 1 mg/kg BW once (D0) via drinking water, laying hens, infestation on D15
[13] = Group B, 1 mg/kg BW once (D0) via drinking water, laying hens, infestation on D19
[14] = Group B, 1 mg/kg BW once (D0) via drinking water, laying hens, infestation on D22
[15] = Group C, 0.5 mg/kg BW once (D0) via drinking water, laying hens, infestation on D1
[16] = Group C, 0.5 mg/kg BW once (D0) via drinking water, laying hens, infestation on D5
[17] = Group C, 0.5 mg/kg BW once (D0) via drinking water, laying hens, infestation on D8
[18] = Group C, 0.5 mg/kg BW once (D0) via drinking water, laying hens, infestation on D12
[19] = Group C, 0.5 mg/kg BW once (D0) via drinking water, laying hens, infestation on D15
[20] = Group C, 0.5 mg/kg BW once (D0) via drinking water, laying hens, infestation on D19
[21] = Group C, 0.5 mg/kg BW once (D0) via drinking water, laying hens, infestation on D22
[22] = Group D, 1 (2 × 0.5) mg/kg BW (D0 and D7) via drinking water, laying hens, infestation on D1
[23] = Group D, 1 (2 × 0.5) mg/kg BW (D0 and D7) via drinking water, laying hens, infestation on D5
[24] = Group D, 1 (2 × 0.5) mg/kg BW (D0 and D7) via drinking water, laying hens, infestation on D8
[25] = Group D, 1 (2 × 0.5) mg/kg BW (D0 and D7) via drinking water, laying hens, infestation on D12
[26] = Group D, 1 (2 × 0.5) mg/kg BW (D0 and D7) via drinking water, laying hens, infestation on D15
[27] = Group D, 1 (2 × 0.5) mg/kg BW (D0 and D7) via drinking water, laying hens, infestation on D19
[28] = Group D, 1 (2 × 0.5) mg/kg BW (D0 and D7) via drinking water, laying hens, infestation on D22

Cc1cc(C2=NOC(c3cc(Cl)cc(Cl)c3)(C(F)(F)F)C2)ccc1C(=O)NCC(=O)NCC(F)(F)F (stereo not shown) [fluralaner, 4-[5-(3,5-Dichlorophenyl)-5-trifluoromethyl-4,5-dihydroisoxazol-3-yl]-2-methyl-N-[(2,2,2-trifluoro-ethylcarbamoyl)-methyl]-benzamide]
% Inhibition of D. gallinae assessed 24 hours after infestation [1]: 100%
% Mortality of D. gallinae assessed 24 hours after infestation [1]: 100%
% Inhibition of D. gallinae assessed 24 hours after infestation [2]: 100%
% Mortality of D. gallinae assessed 24 hours after infestation [2]: 100%
% Inhibition of D. gallinae assessed 24 hours after infestation [3]: 100%
% Mortality of D. gallinae assessed 24 hours after infestation [3]: 100%
% Inhibition of D. gallinae assessed 24 hours after infestation [4]: 100%
% Mortality of D. gallinae assessed 24 hours after infestation [4]: 100%
% Inhibition of D. gallinae assessed 24 hours after infestation [5]: 81%
% Mortality of D. gallinae assessed 24 hours after infestation [5]: 77%
% Inhibition of D. gallinae assessed 24 hours after infestation [6]: 14%
% Mortality of D. gallinae assessed 24 hours after infestation [6]: 1%
% Inhibition of D. gallinae assessed 24 hours after infestation [7]: 0%
% Mortality of D. gallinae assessed 24 hours after infestation [7]: 0%
% Inhibition of D. gallinae assessed 24 hours after infestation [8]: 100%
% Mortality of D. gallinae assessed 24 hours after infestation [8]: 100%
% Inhibition of D. gallinae assessed 24 hours after infestation [9]: 100%
% Mortality of D. gallinae assessed 24 hours after infestation [9]: 100%
% Inhibition of D. gallinae assessed 24 hours after infestation [10]: 100%
% Mortality of D. gallinae assessed 24 hours after infestation [10]: 100%
% Inhibition of D. gallinae assessed 24 hours after infestation [11]: 95%
% Mortality of D. gallinae assessed 24 hours after infestation [11]: 94%
% Inhibition of D. gallinae assessed 24 hours after infestation [12]: 81%
% Mortality of D. gallinae assessed 24 hours after infestation [12]: 77%
% Inhibition of D. gallinae assessed 24 hours after infestation [13]: 3%
% Mortality of D. gallinae assessed 24 hours after infestation [13]: 2%
% Inhibition of D. gallinae assessed 24 hours after infestation [14]: 0%
% Mortality of D. gallinae assessed 24 hours after infestation [14]: 0%
% Inhibition of D. gallinae assessed 24 hours after infestation [15]: 100%
% Mortality of D. gallinae assessed 24 hours after infestation [15]: 100%
% Inhibition of D. gallinae assessed 24 hours after infestation [16]: 100%
% Mortality of D. gallinae assessed 24 hours after infestation [16]: 100%
% Inhibition of D. gallinae assessed 24 hours after infestation [17]: 100%
% Mortality of D. gallinae assessed 24 hours after infestation [17]: 97%
% Inhibition of D. gallinae assessed 24 hours after infestation [18]: 75%
% Mortality of D. gallinae assessed 24 hours after infestation [18]: 55%
% Inhibition of D. gallinae assessed 24 hours after infestation [19]: 19%
% Mortality of D. gallinae assessed 24 hours after infestation [19]: 15%
% Inhibition of D. gallinae assessed 24 hours after infestation [20]: 0%
% Mortality of D. gallinae assessed 24 hours after infestation [20]: 0%
% Inhibition of D. gallinae assessed 24 hours after infestation [21]: 0%
% Mortality of D. gallinae assessed 24 hours after infestation [21]: 0%
% Inhibition of D. gallinae assessed 24 hours after infestation [22]: 100%
% Mortality of D. gallinae assessed 24 hours after infestation [22]: 100%
% Inhibition of D. gallinae assessed 24 hours after infestation [23]: 100%
% Mortality of D. gallinae assessed 24 hours after infestation [23]: 100%
% Inhibition of D. gallinae assessed 24 hours after infestation [24]: 100%
% Mortality of D. gallinae assessed 24 hours after infestation [24]: 100%
% Inhibition of D. gallinae assessed 24 hours after infestation [25]: 100%
% Mortality of D. gallinae assessed 24 hours after infestation [25]: 100%
% Inhibition of D. gallinae assessed 24 hours after infestation [26]: 99%
% Mortality of D. gallinae assessed 24 hours after infestation [26]: 98%
% Inhibition of D. gallinae assessed 24 hours after infestation [27]: 66%
% Mortality of D. gallinae assessed 24 hours after infestation [27]: 59%
% Inhibition of D. gallinae assessed 24 hours after infestation [28]: 27%
% Mortality of D. gallinae assessed 24 hours after infestation [28]: 14%
onset of action (all administered doses, via drinking water, laying hens): fast onset of action
inhibition of red poultry mites (drinking water administration to poultry animals, for at least 15 days): 99%
